Source: patent US8530461B2 (Boehringer Ingelheim International GmbH, priority 2011, dated 2013)

Biological target: T1, human ACC2 (Homo sapiens, UniProt O00763)
T1 construct: made in house; host or cells: insect cells (baculoviral expression system)
Assay: ACC2 assay, spectrophotometric 384 well assay (NADH-linked, coupled lactate dehydrogenase/pyruvate kinase)
Format: biochemical
Settings: ACC2 assay; human ACC2 construct lacking 128 N-terminal amino acids; 25° C., 340 nm, 15 minutes; read-out: IC50
Protocol: Spectrophotometric 384 Well Assay
Malonyl CoA formation by acetyl CoA carboxylases is stoichometrically linked to the consumption of ATP. ACC2 activity is measured in a NADH-linked kinetic method measuring ADP generated during the ACC reaction using a coupled lactate dehydrogenase/pyruvate kinase reaction.
For biological testing, a human ACC2 construct which lacks the 128 amino acids at the N-terminus for increased solubility (nt 385-6966 in Genbank entry AJ575592) is cloned. The protein is then expressed in insect cells using a baculoviral expression system. Protein purification is performed by anion exchange.
All compounds are dissolved in dimethyl sulfoxide (DMSO) to a concentration of 10 mM.
Assay reactions are then carried out in 384-well plates, with hACC2 in an appropriate dilution and at final assay concentrations (f.c.) of 100 mM Tris (pH 7.5), 10 mM trisodium citrate, 25 mM KHCO3, 10 mM MgCl2, 0.5 mg/ml BSA, 3.75 mM reduced L-glutathione, 15 U/ml lactate dehydrogenase, 0.5 mM phosphoenolpyruvate, 15 U/ml pyruvate kinase, compounds at different concentrations at final DMSO concentrations of 1%.
The enzymatic reaction is then started by addition of a mixture of NADH, acetyl Coenzyme A (both […].) and ATP (500 uM f.c.). The decrease of the optical density (slope S) is then determined at 25° C. at a wavelength of 340 nm over 15 minutes in a spectrophotometric reader.
Each assay microtiter plate contains wells with vehicle instead of compound as controls for the non-inhibited enzyme (100% CTL; ‘HIGH’) and wells without acetyl-CoA as controls for non-specific NADH degradation (0% CTL; ‘LOW’).
The slope S is used for calculation of % CTL=(S(compound)−S(‘LOW’))/(S(‘HIGH’)−S(‘LOW’))100. Compounds will give values between 100% CTL (no inhibition) and 0% CTL (complete inhibition).
For IC50 value determination, the sample slope in the presence of the test compound after subtraction of the low controls (S(compound)−S(‘LOW’)) are used.
An IC50 value is derived from the compound slopes at different dosages after subtraction of the low controls (S(compound)−S(‘LOW’)) by non-linear regression curve fitting (equation y=(A+((B−A)/(1+((C/x)^D))))).

T1 sequence (O00763 129-2458 limits assumed): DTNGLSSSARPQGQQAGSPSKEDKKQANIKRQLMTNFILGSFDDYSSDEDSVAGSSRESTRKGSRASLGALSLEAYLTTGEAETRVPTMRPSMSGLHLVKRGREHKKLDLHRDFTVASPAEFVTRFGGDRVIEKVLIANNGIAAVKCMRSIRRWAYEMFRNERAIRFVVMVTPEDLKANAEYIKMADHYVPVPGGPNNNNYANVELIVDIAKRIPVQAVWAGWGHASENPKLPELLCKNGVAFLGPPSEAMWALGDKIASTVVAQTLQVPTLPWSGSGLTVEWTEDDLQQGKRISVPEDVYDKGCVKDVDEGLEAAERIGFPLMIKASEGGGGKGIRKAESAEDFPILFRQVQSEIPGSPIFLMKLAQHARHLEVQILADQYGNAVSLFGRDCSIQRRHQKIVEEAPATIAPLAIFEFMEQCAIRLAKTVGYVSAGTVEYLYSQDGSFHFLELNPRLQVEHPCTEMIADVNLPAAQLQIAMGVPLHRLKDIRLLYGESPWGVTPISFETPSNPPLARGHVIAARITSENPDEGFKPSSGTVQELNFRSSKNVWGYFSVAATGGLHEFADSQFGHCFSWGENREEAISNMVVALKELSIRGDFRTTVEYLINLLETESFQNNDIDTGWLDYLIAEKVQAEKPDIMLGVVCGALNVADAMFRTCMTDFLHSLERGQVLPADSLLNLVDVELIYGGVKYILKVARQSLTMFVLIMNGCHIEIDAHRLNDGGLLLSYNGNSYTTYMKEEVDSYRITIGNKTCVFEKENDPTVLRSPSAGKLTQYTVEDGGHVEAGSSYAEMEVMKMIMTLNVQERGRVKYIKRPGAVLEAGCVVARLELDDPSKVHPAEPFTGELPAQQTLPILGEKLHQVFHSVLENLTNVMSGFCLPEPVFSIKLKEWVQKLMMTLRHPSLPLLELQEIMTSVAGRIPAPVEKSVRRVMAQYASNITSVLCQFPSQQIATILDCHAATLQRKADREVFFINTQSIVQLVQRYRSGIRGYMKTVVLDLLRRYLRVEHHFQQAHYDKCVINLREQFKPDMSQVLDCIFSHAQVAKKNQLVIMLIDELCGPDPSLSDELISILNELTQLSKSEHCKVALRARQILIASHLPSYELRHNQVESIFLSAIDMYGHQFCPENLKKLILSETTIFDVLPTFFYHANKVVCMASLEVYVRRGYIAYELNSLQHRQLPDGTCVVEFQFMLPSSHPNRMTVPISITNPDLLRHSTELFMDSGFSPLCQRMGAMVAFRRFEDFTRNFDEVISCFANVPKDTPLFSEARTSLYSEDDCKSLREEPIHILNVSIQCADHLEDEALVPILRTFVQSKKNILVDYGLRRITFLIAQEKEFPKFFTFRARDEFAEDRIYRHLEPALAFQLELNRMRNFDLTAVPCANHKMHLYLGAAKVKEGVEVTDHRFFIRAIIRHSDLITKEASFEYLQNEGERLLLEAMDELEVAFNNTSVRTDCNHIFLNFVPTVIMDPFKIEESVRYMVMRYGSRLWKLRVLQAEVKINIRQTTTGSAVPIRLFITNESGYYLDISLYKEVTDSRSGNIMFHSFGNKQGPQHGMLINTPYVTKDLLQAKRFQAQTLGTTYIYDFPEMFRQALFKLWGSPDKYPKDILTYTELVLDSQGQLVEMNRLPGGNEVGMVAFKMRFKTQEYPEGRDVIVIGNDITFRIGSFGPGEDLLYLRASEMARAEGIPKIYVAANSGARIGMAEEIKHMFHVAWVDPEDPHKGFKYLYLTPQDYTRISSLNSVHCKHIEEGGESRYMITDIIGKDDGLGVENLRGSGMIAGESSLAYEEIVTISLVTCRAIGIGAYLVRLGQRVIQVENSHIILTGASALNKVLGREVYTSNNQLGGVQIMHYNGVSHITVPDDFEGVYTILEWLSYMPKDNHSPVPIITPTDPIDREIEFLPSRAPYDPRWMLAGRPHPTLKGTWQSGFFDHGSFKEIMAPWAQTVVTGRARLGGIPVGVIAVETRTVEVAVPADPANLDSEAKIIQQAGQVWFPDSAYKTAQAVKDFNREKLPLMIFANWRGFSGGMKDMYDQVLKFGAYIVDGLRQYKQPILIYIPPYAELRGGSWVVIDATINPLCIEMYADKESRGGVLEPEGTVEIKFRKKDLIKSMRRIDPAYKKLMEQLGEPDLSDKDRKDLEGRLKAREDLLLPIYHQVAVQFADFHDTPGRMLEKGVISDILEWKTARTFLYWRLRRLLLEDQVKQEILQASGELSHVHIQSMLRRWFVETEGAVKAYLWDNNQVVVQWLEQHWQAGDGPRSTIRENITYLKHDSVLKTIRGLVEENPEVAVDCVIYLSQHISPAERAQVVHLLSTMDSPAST

| IC50 | SMILES |
| --- | --- |
| 2590 nM | CCOc1ccc(OC2CN(c3ccc([C@H](C)NC(=O)C4(C)CCC4)cc3)C2)cc1 [Example 1.1, (S)-1-Methyl-cyclobutanecarboxylic acid (1-{4-[3-(4-ethoxy-phenoxy)-azetidin-1-yl]-phenyl}-ethyl)-amide] |
| 150 nM | CCOc1ccc(OC2CN(c3ccc([C@H](C)NC(=O)CC)cc3)C2)cc1 [Example 1.2] |
| 1040 nM | CCOc1ccc(OC2CN(c3ccc([C@H](C)NC(=O)COC)cc3)C2)cc1 [Example 1.3] |
| 120 nM | CCOc1ccc(OC2CN(c3ccc([C@H](C)NC(=O)C(C)C)cc3)C2)cc1 [Example 1.5] |
| 280 nM | CCCC(=O)N[C@@H](C)c1ccc(N2CC(Oc3ccc(OCC)cc3)C2)cc1 [Example 1.6] |
| 170 nM | CCOc1ccc(OC2CN(c3ccc([C@H](C)NC(=O)C4CCC4)cc3)C2)cc1 [Example 1.7] |
| 550 nM | CCOc1ccc(OC2CN(c3ccc([C@H](C)NC(=O)C4CCCC4)cc3)C2)cc1 [Example 1.8] |
| 460 nM | CCOc1ccc(OC2CN(c3ccc([C@H](C)NC(=O)C4CC4C)cc3)C2)cc1 (stereo partly shown) [Example 1.9] |
| 3190 nM | CCOc1ccc(OC2CN(c3ccc([C@H](C)NC(=O)C4(O)CC4)cc3)C2)cc1 [Example 1.10] |
| 210 nM | CCOc1ccc(OC2CN(c3ccc([C@H](C)NC(=O)c4cn[nH]c4)cc3)C2)cc1 [Example 1.11] |
| 230 nM | CCOc1ccc(OC2CN(c3ccc([C@H](C)NC(=O)C4(C)CC4)cc3)C2)cc1 [Example 1.12] |
| 480 nM | CCOc1ccc(OC2CN(c3ccc([C@H](C)NC(=O)Cn4ccnc4)cc3)C2)cc1 [Example 1.13] |
| 70 nM | CCOc1ccc(OC2CN(c3ccc([C@H](C)NC(=O)c4conc4C)cc3)C2)cc1 [Example 1.14] |
| 2560 nM | CCOc1ccc(OC2CN(c3ccc([C@H](C)NC(=O)CC4CC4)cc3)C2)cc1 [Example 1.15] |
| 280 nM | CCOc1ccc(OC2CN(c3ccc([C@H](C)NC(=O)C(C)(C)F)cc3)C2)cc1 [Example 1.17] |
| 340 nM | CCOc1ccc(OC2CN(c3ccc([C@H](C)NC(=O)C4(C#N)CC4)cc3)C2)cc1 [Example 1.18] |
| 590 nM | CCOc1ccc(OC2CN(c3ccc([C@H](C)NC(=O)C4CC(OC)C4)cc3)C2)cc1 (stereo partly shown) [Example 1.19] |
| 330 nM | CCOc1ccc(OC2CN(c3ccc([C@H](C)NC(=O)c4cocn4)cc3)C2)cc1 [Example 1.20] |
| 480 nM | CCOc1ccc(OC2CN(c3ccc([C@H](C)NC(=O)c4cnn(C)c4)cc3)C2)cc1 [Example 1.21] |
| 450 nM | CCOc1ccc(OC2CN(c3ccc([C@H](C)NC(=O)Cc4cncnc4)cc3)C2)cc1 [Example 1.22] |
| 1470 nM | CCOc1ccc(OC2CN(c3ccc([C@H](C)NC(=O)C4(C)COC4)cc3)C2)cc1 [Example 1.23] |

| IC50 | SMILES |
| --- | --- |
| 220 nM | CCOc1ccc(OC2CN(c3ccc([C@H](C)NC(=O)C4CC(F)C4)cc3)C2)cc1 (stereo partly shown) [Example 1.24] |
| 1230 nM | CCOc1ccc(OC2CN(c3ccc([C@H](C)NC(=O)c4ccncc4)cc3)C2)cc1 [Example 1.26] |
| 1950 nM | CCOc1ccc(OC2CN(c3ccc([C@H](C)NC(=O)c4cccnc4)cc3)C2)cc1 [Example 1.27] |
| 1010 nM | CCOc1ccc(OC2CN(c3ccc([C@H](C)NC(=O)CO)cc3)C2)cc1 [Example 1.28] |
| 1160 nM | CCOc1ccc(OC2CN(c3ccc([C@H](C)NC(=O)c4c[nH]cn4)cc3)C2)cc1 [Example 1.29] |
| 740 nM | CCOc1ccc(OC2CN(c3ccc([C@H](C)NC(=O)c4c(C)noc4N)cc3)C2)cc1 [Example 1.30] |
| 1750 nM | CCOc1ccc(OC2CN(c3ccc([C@H](C)NC(=O)c4cc(C)nn4C)cc3)C2)cc1 [Example 1.31] |
| 50 nM | CCOc1ccc(OC2CN(c3ccc([C@H](C)NC(=O)c4sc(NC(C)=O)nc4C)cc3)C2)cc1 [Example 1.32] |
| 2520 nM | CCOc1ccc(OC2CN(c3ccc([C@H](C)NC(=O)c4cn(C)cn4)cc3)C2)cc1 [Example 1.33] |
| 2060 nM | CCOc1ccc(OC2CN(c3ccc([C@H](C)NC(=O)c4cncn4C)cc3)C2)cc1 [Example 1.34] |
| 400 nM | CCOc1ccc(OC2CN(c3ccc([C@H](C)NC(=O)c4ocnc4C)cc3)C2)cc1 [Example 1.35] |
| 1610 nM | CCOc1ccc(OC2CN(c3ccc([C@H](C)NC(=O)c4ccon4)cc3)C2)cc1 [Example 1.36] |
| 170 nM | CCOc1ccc(OC2CN(c3ccc([C@H](C)NC(=O)c4cnco4)cc3)C2)cc1 [Example 1.37] |
| 780 nM | CCOc1ccc(OC2CN(c3ccc([C@H](C)NC(=O)c4scnc4C)cc3)C2)cc1 [Example 1.38] |
| 2250 nM | CCOc1ccc(OC2CN(c3ccc([C@H](C)NC(=O)c4oc(C)nc4C)cc3)C2)cc1 [Example 1.39] |
| 6430 nM | CCOc1ccc(OC2CN(c3ccc([C@H](C)NC(=O)C(C)(C)OC)cc3)C2)cc1 [Example 1.40] |
| 1070 nM | CCOc1ccc(OC2CN(c3ccc([C@H](C)NC(=O)c4cnc(C)s4)cc3)C2)cc1 [Example 1.41] |
| 1700 nM | CCOc1ccc(OC2CN(c3ccc([C@H](C)NC(=O)c4occc4C)cc3)C2)cc1 [Example 1.42] |
| 320 nM | CCOc1ccc(OC2CN(c3ccc([C@H](C)NC(=O)C(C)F)cc3)C2)cc1 (stereo partly shown) [Example 1.43] |
| 610 nM | CCOc1ccc(OC2CN(c3ccc([C@H](C)NC(=O)c4csc(NC(C)=O)n4)cc3)C2)cc1 [Example 1.44] |
| 2010 nM | CCOc1ccc(OC2CN(c3ccc([C@H](C)NC(=O)c4cc(=O)[nH]cn4)cc3)C2)cc1 [Example 1.45] |

| IC50 | SMILES |
| --- | --- |
| 1730 nM | CCOc1ccc(OC2CN(c3ccc([C@H](C)NC(=O)C4CC(=O)N(C)C4)cc3)C2)cc1 (stereo partly shown) [Example 1.46] |
| 1330 nM | CCOc1ccc(OC2CN(c3ccc([C@H](C)NC(=O)Cc4c[nH]cn4)cc3)C2)cc1 [Example 1.47] |
| 3350 nM | CCOc1ccc(OC2CN(c3ccc([C@H](C)NC(=O)c4ccc5c(c4)nnn5C)cc3)C2)cc1 [Example 1.48] |
| 1470 nM | CCOc1ccc(OC2CN(c3ccc([C@H](C)NC(=O)Cc4cc[nH]c4)cc3)C2)cc1 [Example 1.49] |
| 1060 nM | CCOc1ccc(OC2CN(c3ccc([C@H](C)NC(=O)c4nc(C)sc4C)cc3)C2)cc1 [Example 1.50] |
| 70 nM | CCOc1ccc(OC2CN(c3ccc([C@H](C)NC(=O)C4CC=CC4)cc3)C2)cc1 [Example 1.51] |
| 970 nM | CCOc1ccc(OC2CN(c3ccc([C@H](C)NC(=O)Cc4cccnc4)cc3)C2)cc1 [Example 1.52] |
| 70 nM | CCOc1ccc(OC2CN(c3ccc([C@H](C)NC(=O)C(C)(F)F)cc3)C2)cc1 [Example 1.53] |
| 540 nM | CCOc1ccc(OC2CN(c3ccc([C@H](C)NC(=O)Cc4cc(C)no4)cc3)C2)cc1 [Example 1.54] |
| 440 nM | CCOc1ccc(OC2CN(c3ccc([C@H](C)NC(=O)CCCNC(C)=O)cc3)C2)cc1 [Example 1.55] |
| 1300 nM | CCOc1ccc(OC2CN(c3ccc([C@H](C)NC(=O)C4CNC(=O)C4)cc3)C2)cc1 (stereo partly shown) [Example 1.57] |
| 3900 nM | CCOc1ccc(OC2CN(c3ccc([C@H](C)NC(=O)c4cnc(NC)nc4)cc3)C2)cc1 [Example 1.58] |
| 2060 nM | CCOc1ccc(OC2CN(c3ccc([C@H](C)NC(=O)C4CCC(=O)N4)cc3)C2)cc1 (stereo partly shown) [Example 1.59] |
| 320 nM | CCOc1ccc(OC2CN(c3ccc([C@H](C)NC(=O)c4cnc(NC(C)=O)s4)cc3)C2)cc1 [Example 1.60] |
| 1440 nM | CCOc1ccc(OC2CN(c3ccc([C@H](C)NC(=O)Cn4cncn4)cc3)C2)cc1 [Example 1.61] |
| 2500 nM | CCOCC(=O)N[C@@H](C)c1ccc(N2CC(Oc3ccc(OCC)cc3)C2)cc1 [Example 1.62] |
| 930 nM | C#CC(C)(C)C(=O)N[C@@H](C)c1ccc(N2CC(Oc3ccc(OCC)cc3)C2)cc1 [Example 1.63] |
| 2190 nM | CCOc1ccc(OC2CN(c3ccc([C@H](C)NC(=O)c4ccc(C)nc4)cc3)C2)cc1 [Example 1.64] |
| 800 nM | CCCCC(=O)N[C@@H](C)c1ccc(N2CC(Oc3ccc(OCC)cc3)C2)cc1 [Example 1.65] |
| 550 nM | CCOc1ccc(OC2CN(c3ccc([C@H](C)NC(=O)c4sc(NC(C)=O)nc4-c4ccccc4)cc3)C2)cc1 [Example 1.66] |
| 1290 nM | CCOc1ccc(OC2CN(c3ccc([C@H](C)NC(=O)CCOC)cc3)C2)cc1 [Example 1.67] |

Same assay, conditions: IC50, ACC2 assay; human ACC2 construct lacking 128 N-terminal amino acids; 25° C., 340 nm, 15 minutes

| SMILES | IC50 |
| --- | --- |
| CCOc1ccc(OC2CN(c3ccc([C@H](C)NC(=O)CF)cc3)C2)cc1 [Example 1.16] | 110 nM |
